Measured values published in patent publication US20140309221A1, “METHOD OF INHIBITING HAMARTOMA TUMOR CELLS” (DANA-FARBER CANCER INSTITUTE, INC., priority 2011, published 2014).
“Also recorded” adds a separate entry of the source.

Tests used:
[1] = system: PHTS symptoms in K14-cre-Pten f/f mice; test: Early administration: prevention of PHTS symptom development in K14-cre-Pten f/f mice; assay type: in vivo; details: 25 mg/kg daily by oral gavage beginning at 3 weeks of age
Method: (§1) 4-(Trifluoromethyl)-5-(2,6-dimorpholinopyrimidin-4-yl)pyridin-2-amine powder was dissolved in 1 volume of NMP (1-methyl-2-pyrrolidone). After dissolution (if needed, in warm water), add 9 volumes of PEG300. The final ratio is: NMP 10%/PEG300 90%.
Pten f/f mice (Lesche, R., et al., Cre/loxP-mediated inactivation of the murine Pten tumor suppressor gene. Genesis, 2002. 32(2): 148-9) were crossed with K14-cre mice (Jonkers, J., et al., Synergistic tumor suppressor activity of BRCA2 and p53 in a conditional mouse model for breast cancer. Nat Genet, 2001. 29(4): 418-25) to generate K14-Cre Pten f/f mice in which the floxed Pten allele is deleted specifically in the keratinocytes by the K14-driven Cre recombinase. […]
K14-cre-Pten f/f mice were treated daily with 25 mg/kg 4-(trifluoromethyl)-5-(2,6-dimorpholinopyrimidin-4-yl)pyridin-2-amine by oral gavage beginning at 3 weeks of age and the development of PHTS symptoms monitored. […]

[2] = system: PHTS symptoms in K14-cre-Pten f/f mice; test: Administration to K14-cre-Pten f/f mice with fully developed PHTS: relief of symptoms; assay type: in vivo
Method: as §1
Pten f/f mice (Lesche, R., et al., Cre/loxP-mediated inactivation of the murine Pten tumor suppressor gene. Genesis, 2002. 32(2): 148-9) were crossed with K14-cre mice (Jonkers, J., et al., Synergistic tumor suppressor activity of BRCA2 and p53 in a conditional mouse model for breast cancer. Nat Genet, 2001. 29(4): 418-25) to generate K14-Cre Pten f/f mice in which the floxed Pten allele is deleted specifically in the keratinocytes by the K14-driven Cre recombinase. These mice were further crossed with p110a f/f (Zhao, J. J., et al., The p110 alpha isoform of PI3K is essential for proper growth factor signaling and oncogenic transformation. Proc Natl Acad Sci USA, 2006. 103(44): 16296-300) and p110b f/f mice (Jia, S., et al., Essential roles of PI(3)K-p110beta in cell growth, metabolism and tumorigenesis. Nature, 2008) to generate K14-cre Pten f/f, K14-cre Pten f/f; p110a f/f, K14-cre Pten f/f; p110b f/f, and K14-cre-Pten f/f; p110a f/f; p110b f/f mice. Keratinocyte-specific deletion of Pten results in multiple dermal lesions in the K14-cre Ptenf/f mice that resemble multiple skin hamartomas of PHTS. […]

Nc1cc(C(F)(F)F)c(-c2cc(N3CCOCC3)nc(N3CCOCC3)n2)cn1 [COMPOUND A, 4-(trifluoromethyl)-5-(2,6-dimorpholinopyrimidin-4-yl)pyridin-2-amine]
development of PHTS symptoms (PHTS free survival) ([1]; n=12): remained free of PHTS symptoms | development of PHTS symptoms (PHTS free survival) ([1]; n=12, listed as 4-(trifluoromethyl)-5-(2,6-dimorpholinopyrimidin-4-yl)pyridin-2-amine): remained free of PHTS symptoms; also recorded: entirely blocked appearance of PHTS | relief of PHTS symptoms ([2]; K14-cre-Pten f/f mice with fully developed PHTS (12-14 weeks of age), 45 mg/kg daily by oral gavage for 4 weeks, 45 mg/kg): dramatically relieved the PHTS symptoms; also recorded: completely reversed the phenotype of PHST | PHTS symptoms at the end of the 4-week treatment ([2]; K14-cre-Pten f/f mice with fully developed PHTS, 45 mg/kg daily by oral gavage, end of 4 weeks): substantially or completely reduced
